Patent publication US12006321B2, “Substituted pyrazolo[1,5-a]pyrimidines as apelin receptor agonists” (Sanford Burnham Prebys Medical Discovery Institute, priority 2017, dated 2024)

Target: T1, human apelin receptor (APJ, APLNR) (Homo sapiens, UniProt P35414)
T1 construct: host or cells: Chinese hamster ovary (CHO) cells, stably integrated receptor
T1 sequence (P35414 1-380): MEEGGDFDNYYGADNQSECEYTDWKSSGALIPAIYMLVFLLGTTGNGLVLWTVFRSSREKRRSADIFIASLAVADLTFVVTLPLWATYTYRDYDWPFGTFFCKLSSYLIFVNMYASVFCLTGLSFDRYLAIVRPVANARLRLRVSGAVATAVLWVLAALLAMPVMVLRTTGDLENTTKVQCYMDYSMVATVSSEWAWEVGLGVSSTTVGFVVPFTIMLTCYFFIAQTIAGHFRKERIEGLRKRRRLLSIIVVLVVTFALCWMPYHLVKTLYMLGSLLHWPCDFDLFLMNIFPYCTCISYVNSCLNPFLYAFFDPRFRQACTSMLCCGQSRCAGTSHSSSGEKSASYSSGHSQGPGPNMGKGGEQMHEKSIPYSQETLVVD
Assay: cell-based cAMP assay (TR-FRET) in Chinese hamster ovary cells expressing the apelin receptor
Details: EC50 = 50% of control (apelin-13, 1 nM) response; cAMP in CHO cells, 0.5 h incubation; read-out: Potency Category
Method in brief: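 CHO cells stably expressing human APJ were forskolin-stimulated, then exposed to compound (0.0-100 μM, ≤1% DMSO) for 0.5 h. Lysate cAMP read by competitive TR-FRET immunoassay; EC50 and efficacy expressed relative to 1 nM apelin-13, four-parameter fit over ≥10 concentrations.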

Q: Which EC50 does the source give for `Cc1cccc(C)c1-c1c(C)nn2c(N3CCCC3)cc(C(=O)O)nc12` [Compound 123, 3-(2,6-dimethylphenyl)-2-methyl-7-pyrrolidinyl-8-hydropyrazolo[1,5-a]pyrimidine-5-carboxylic acid] here?
A: > 500 nM

Q: `COC(=O)c1cc(N2CCCCC2)n2nc(C)c(-c3c(C)cccc3C)c2n1` [Compound 124, methyl 3-(2,6-dimethylphenyl)-2-methyl-7-piperidyl-8-hydropyrazolo[1,5-a]pyrimidine-5-carboxylate] was tested. Which EC50 did it give?
A: > 500 nM

Q: With `Cc1cccc(C)c1-c1c(C)nn2c(N3CCCCC3)cc(C(=O)O)nc12` [Compound 125, 3-(2,6-dimethylphenyl)-2-methyl-7-piperidyl-8-hydropyrazolo[1,5-a]pyrimidine-5-carboxylic acid] as the compound, how does the EC50 read?
A: > 500 nM

Q: For `Cc1cccc(C)c1-c1c(C)nn2c(-c3ccncc3)cc(C(=O)O)nc12` [Compound 126, 3-(2,6-dimethylphenyl)-2-methyl-7-(4-pyridyl)-8-hydropyrazolo[1,5-a]pyrimidine-5-carboxylic acid], which EC50 is on record?
A: > 500 nM

Q: With `Cc1cccc(C)c1-c1c(C)nn2c(C3=CCCC3)cc(C(=O)O)nc12` [Compound 127, 3-(2,6-dimethylphenyl)-7-cyclopent-1-enyl-2-methyl-8-hydropyrazolo[1,5-a]pyrimidine-5-carboxylic acid] as the compound, how does the EC50 read?
A: > 500 nM

Q: Which EC50 does the source give for `Cc1cccc(CO)c1-c1c(C)nn2c(C(C)C)cc(C(=O)O)nc12` [Compound 128, 3-[6-(hydroxymethyl)-2-methylphenyl]-2-methyl-7-(methylethyl)-8-hydropyrazolo[1,5-a]pyrimidine-5-carboxylic acid] here?
A: < 100 nM

Q: With `CCOC(=O)c1cc(C(C)C)n2nc(C)c(-c3c(C)cccc3Br)c2n1` [Compound 129, ethyl 3-(2-bromo-6-methylphenyl)-2-methyl-7-(methylethyl)-8-hydropyrazolo[1,5-a]pyrimidine-5-carboxylate] as the compound, how does the EC50 read?
A: > 500 nM

Q: For `Cc1cccc(Br)c1-c1c(C)nn2c(C(C)C)cc(C(=O)O)nc12` [Compound 130, 3-(2-bromo-6-methylphenyl)-2-methyl-7-(methylethyl)-8-hydropyrazolo[1,5-a]pyrimidine-5-carboxylic acid], which EC50 is on record?
A: 200 to 500 nM

Q: Which EC50 does the source give for `COCc1cccc(C)c1-c1c(C)nn2c(C(C)C)cc(C(=O)O)nc12` [Compound 131, 3-[6-(methoxymethyl)-2-methylphenyl]-2-methyl-7-(methylethyl)-8-hydropyrazolo[1,5-a]pyrimidine-5-carboxylic acid] here?
A: < 100 nM

Q: Which EC50 does the source give for `COC(=O)c1cc(Nc2ccc(F)cc2)n2nc(C)c(-c3c(C)cccc3C)c2n1` [Compound 132, methyl 3-(2,6-dimethylphenyl)-7-[(4-fluorophenyl)amino]-2-methyl-8-hydropyrazolo[1,5-a]pyrimidine-5-carboxylate] here?
A: > 500 nM

Q: For `COC(=O)c1cc(Nc2ccc(Cl)cc2)n2nc(C)c(-c3c(C)cccc3C)c2n1` [Compound 133, methyl 3-(2,6-dimethylphenyl)-7-[(4-chlorophenyl)amino]-2-methyl-8-hydropyrazolo[1,5-a]pyrimidine-5-carboxylate], which EC50 is on record?
A: > 500 nM

Q: For `COC(=O)c1cc(Nc2ccc(C)cc2)n2nc(C)c(-c3c(C)cccc3C)c2n1` [Compound 134, methyl 3-(2,6-dimethylphenyl)-2-methyl-7-[(4-methylphenyl)amino]-8-hydropyrazolo[1,5-a]pyrimidine-5-carboxylate], which EC50 is on record?
A: > 500 nM

Q: Which EC50 does the source give for `COC(=O)c1cc(Nc2ccc(OC)cc2)n2nc(C)c(-c3c(C)cccc3C)c2n1` [Compound 135, methyl 3-(2,6-dimethylphenyl)-7-[(4-methoxyphenyl)amino]-2-methyl-8-hydropyrazolo[1,5-a]pyrimidine-5-carboxylate] here?
A: > 500 nM

Q: With `COC(=O)c1cc(Nc2ccc(C(F)(F)F)cc2)n2nc(C)c(-c3c(C)cccc3C)c2n1` [Compound 136, methyl 3-(2,6-dimethylphenyl)-2-methyl-7-{[4-(trifluoromethyl)phenyl]amino}-8-hydropyrazolo[1,5-a]pyrimidine-5-carboxylate] as the compound, how does the EC50 read?
A: > 500 nM

Q: For `COC(=O)c1cc(Nc2ccc(OC(F)(F)F)cc2)n2nc(C)c(-c3c(C)cccc3C)c2n1` [Compound 137, methyl 3-(2,6-dimethylphenyl)-2-methyl-7-{[4-(trifluoromethoxy)phenyl]amino}-8-hydropyrazolo[1,5-a]pyrimidine-5-carboxylate], which EC50 is on record?
A: > 500 nM

Q: For `COC(=O)c1cc(Nc2ccc(C#N)cc2)n2nc(C)c(-c3c(C)cccc3C)c2n1` [Compound 138, methyl 3-(2,6-dimethylphenyl)-7-[(4-cyanophenyl)amino]-2-methyl-8-hydropyrazolo[1,5-a]pyrimidine-5-carboxylate], which EC50 is on record?
A: > 500 nM

Q: `Cc1cccc(C)c1-c1c(C)nn2c(Nc3ccc(F)cc3)cc(C(=O)O)nc12` [Compound 139, 3-(2,6-dimethylphenyl)-7-[(4-fluorophenyl)amino]-2-methyl-8-hydropyrazolo[1,5-a]pyrimidine-5-carboxylic acid] was tested. Which EC50 did it give?
A: > 500 nM

Q: For `Cc1cccc(C)c1-c1c(C)nn2c(Nc3ccc(Cl)cc3)cc(C(=O)O)nc12` [Compound 140, 3-(2,6-dimethylphenyl)-7-[(4-chlorophenyl)amino]-2-methyl-8-hydropyrazolo[1,5-a]pyrimidine-5-carboxylic acid], which EC50 is on record?
A: > 500 nM

Q: `Cc1ccc(Nc2cc(C(=O)O)nc3c(-c4c(C)cccc4C)c(C)nn23)cc1` [Compound 141, 3-(2,6-dimethylphenyl)-2-methyl-7-[(4-methylphenyl)amino]-8-hydropyrazolo[1,5-a]pyrimidine-5-carboxylic acid] was tested. Which EC50 did it give?
A: > 500 nM

Q: Which EC50 does the source give for `COc1ccc(Nc2cc(C(=O)O)nc3c(-c4c(C)cccc4C)c(C)nn23)cc1` [Compound 142, 3-(2,6-dimethylphenyl)-7-[(4-methoxyphenyl)amino]-2-methyl-8-hydropyrazolo[1,5-a]pyrimidine-5-carboxylic acid] here?
A: > 500 nM

Q: Which EC50 does the source give for `Cc1cccc(C)c1-c1c(C)nn2c(Nc3ccc(C(F)(F)F)cc3)cc(C(=O)O)nc12` [Compound 143, 3-(2,6-dimethylphenyl)-2-methyl-7-{[4-(trifluoromethyl)phenyl]amino}-8-hydropyrazolo[1,5-a]pyrimidine-5-carboxylic acid] here?
A: > 500 nM

Q: With `Cc1cccc(C)c1-c1c(C)nn2c(Nc3ccc(OC(F)(F)F)cc3)cc(C(=O)O)nc12` [Compound 144, 3-(2,6-dimethylphenyl)-2-methyl-7-{[4-(trifluoromethoxy)phenyl]amino}-8-hydropyrazolo[1,5-a]pyrimidine-5-carboxylic acid] as the compound, how does the EC50 read?
A: > 500 nM

Q: `Cc1cccc(C)c1-c1c(C)nn2c(Nc3ccc(C#N)cc3)cc(C(=O)O)nc12` [Compound 145, 3-(2,6-dimethylphenyl)-7-[(4-cyanophenyl)amino]-2-methyl-8-hydropyrazolo[1,5-a]pyrimidine-5-carboxylic acid] was tested. Which EC50 did it give?
A: > 500 nM

Q: `COC(=O)c1cc(N(C)c2ccccc2)n2nc(C)c(-c3c(C)cccc3C)c2n1` [Compound 146, methyl 3-(2,6-dimethylphenyl)-2-methyl-7-(methylphenylamino)-8-hydropyrazolo[1,5-a]pyrimidine-5-carboxylate] was tested. Which EC50 did it give?
A: > 500 nM

Q: `COC(=O)c1cc(N(C)c2ccc(C)cc2)n2nc(C)c(-c3c(C)cccc3C)c2n1` [Compound 147, methyl 3-(2,6-dimethylphenyl)-2-methyl-7-[methyl(4-methylphenyl)amino]-8-hydropyrazolo[1,5-a]pyrimidine-5-carboxylate] was tested. Which EC50 did it give?
A: > 500 nM

Q: With `COC(=O)c1cc(N(C)c2ccc(F)cc2)n2nc(C)c(-c3c(C)cccc3C)c2n1` [Compound 148] as the compound, how does the EC50 read?
A: > 500 nM
